Experimental data as given in patent publication US20210100905A1, “APPLICATION OF COMPOUND OR TRADITIONAL CHINESE MEDICINE EXTRACT IN PREPARATION OF NUCLEIC ACID DELIVERY AGENT, AND RELATED PRODUCTS” (INSTITUTE OF BASIC MEDICAL SCIENCES CHINESE ACADEMY OF …, priority 2018, published 2021).
Entries after “also recorded” stand apart in the source; their conditions may differ.

Tests used:
[1] = tested on: A549 cell (human lung adenocarcinoma cell); assay: In vitro delivery of lipid nucleic acid mixture, RT-qPCR of intracellular small RNA; format: cell-based; settings: for delivery of HJT-sRNA-m7 double-stranded RNA into A549 cells (real-time PCR): single lipid prepared by boiling or reverse evaporation method, RNA 100 nM, FIGS. 76, 91, 96, 99, 104, 106, 107
Protocol: (§1) 3.1 NCI-N87 cell (gastric cancer cell), MRC-5 cell (lung fibroblast), A549 cell (lung cancer cell) were cultured to logarithmic growth phase, and then plated to a six-well plate at cell density of 1×10^6/2 mL medium/well; MRC-5 cell was cultured in Eagle's MEM medium (MEM, Gibco); A549 cell was cultured in Ham's F-12 medium (HyClone); NCI-N87 cell was cultured in RPMI-1640 medium (HyClone); followed by incubation overnight at 37° C., and the follow-up experiments were performed after the cells were attached to the walls.
(§2) 3.3 After co-incubation with the small RNA for 3 hours, the cells were washed 2-3 times with PBS. The cells were harvested with TRIzol lysis buffer, and the total RNA was extracted. The abundance of small RNA that entered cells was detected by RT-qPCR, and the localization of RNA was detected by fluorescence in situ hybridization; protocols of each detection method were as follows:
(§3) 1) The sRNA was reverse transcribed to cDNA: Reverse Transcription Kit (High-Capacity cDNA Reverse Transcription Kits, Applied Biosystems, cat. No. 4368813) was used to reverse transcribe sRNA into cDNA by stem-loop method, and the reverse transcription system was as follows: RNA template (150 ng/μl) 10 μl, 10×RT buffer, 2.0 μl, 25× dNTP Mix (100 mM) 0.8 μl, U6 RT stem-loop primer 2.0 μl, HJT-sRNA-RT-m7 stem-loop primer 2.0 μl, MultiScribe™ reverse transcriptase 1.0 μl, RNase inhibitor 1.0 μl, nuclease-free H2O 1.2 μl, loaded into a PCR reactor after brief centrifugation, the reaction conditions were as follows: (1) 25° C., 10 min; (2) 37° C., 120 min; (3) 85° C., 5 min; (4) 4° C., termination of the reaction. 20 μl RNase-free ddH2O was added to make up the final volume to 40 μl after the reaction. The stem-loop primer used in the reverse transcription process was synthesized by Beijing Tsingke Biotechnology Co., Ltd.
(§4) 2) Quantitative PCR amplification reaction: the qPCR reaction system has a total volume of 10 μl, containing: 5 μL 2×SYBR Green Master Mix, 0.5 μl forward primer ([…]), 0.5 μl reverse primer (10 μM), 1 μl cDNA by reverse transcription, 3 RNase-free dH2O. LightCycler 480 fluorescence quantitative PCR instrument was used, and the PCR reaction conditions were: 95° C. for 5 min for pre-denaturation, followed by PCR amplification cycle: (1) 95° C., 10 s; (2) 55° C., 10 s; (3) 72° C. , 20 s; a total of 40 cycles; 40° C. for 10 s in the end to cool down. Both the forward and reverse primers of the amplification reaction were designed and synthesized by Beijing Tsingke Biotechnology Co., Ltd.
(§5) 3) The relative expression level was calculated by 2-ΔCt method.
(§6) 100 μl lipid in diethyl ether solution was prepared, and grouped according to the lipid numbers shown in Table 1 (the lipid concentrations are shown in the table below). To the lipid solution was added 20 μl nucleic acid solution (HJT sRNA or siRNA) at the volume ratio of 5:1, and sonicated for after 3 min. The diethyl ether was removed by evaporation at 55° C., and then 100 μl DEPC water was added for hydration to give nucleic acid lipid mixture.
(§7) 100 μL of the nucleic acid solution (HJT sRNA or siRNA) was added to 2-5 μL of the lipid in chloroform (the concentration was shown in Table 1), mixed, and heated at 80-100° C. for 15-30 min to give nucleic acid lipid mixture.
(§8) 3.1.1 MRC-5 cell (pulmonary embryonic fibroblast), A549 cell (human lung adenocarcinoma cell), Caco-2 cell (human colon adenocarcinoma cell) (purchased from the Cell Resource Center of the Institute of Basic Medical Sciences, Chinese Academy of Medical Sciences) were cultured to logarithmic growth phase, then plated into 12-well plates at a cell density of 6×10^5/1 mL medium/well; MRC-5 and Caco-2 cells were cultured in Eagle's MEM medium (MEM, Gibco); A549 cells were cultured in Ham's F-12 medium (HyClone); followed by incubation overnight at 37° C., and the follow-up experiments were performed after the cells were attached to the walls. […]

[2] = tested on: MRC-5 cell (lung fibroblast); assay: as above; format: cell-based; settings: single lipid; boiling method; FIGS. 78, 92, 103
Protocol: as §1, §2, §3, §4, §5, §6, §7, §8

[3] = In vivo delivery experiment of lipid nucleic acid mixture (Example 13); set-up: species or system C57 mice; settings: oral administration, 6 hours; for delivery effect into mouse blood and tissues (heart, spleen, kidney or intestine) compared with POPC: FIG. 117a-146b, 100 μg lipid : 1 nmol sRNA
Protocol: 1. Experiment animals: C57 mice, male, approximately 6 weeks old, 20-24g. Mice were raised in the SPF room of the Animal Center of the Institute of Basic Medical Sciences of Chinese Academy of Medical Sciences. The mice were fasted for 12 hours before intragastric administration.
2. Preparation of the mixture of lipid and small RNA: the prepration was conducted on the basis of a dose of 100 μg lipid: lnmol single stranded small RNA PGY-sRNA-26 per mouse as follows: lnmol of each sRNA was dissolved with 500 μl DEPC water in a glass tube, 100 μg corresponding lipid solution No.33, No.35,No.37, No.42, No.43, No.44, No.45, No.46, No.47, No.48, No.49, No.50, No.51, No.52, No.53, No.54, No.55, No.56, No.57, No.58, No.59, No.60, No.61, No.62, No.65, No.66, No.67, No.68, No.69 or No.70 (lipid chloroform solution with a concentration as shown in Table 1-1) was added, pipetted to mix thoroughly. The solution was heated in water bath at 90° C. for 15 min, naturally cooled down, and was administered via gavage.
1) Tissue sampling and extraction of RNA: 6 hours after gavage in mice, 500 μl of blood was taken from the eyeball, and was added 1.5 ml Trizol Reagent LS to thoroughly mix and lyse. Tissue sampling: the mouse was sarcrified by breaking its neck, and the thoracic and abdominal cavities of the mouse was exposed to remove the heart/whole spleen/two kidneys/intestine (5 cm of upper end), which was immediately added 2 ml Trizol Reagent (purchased from Invitrogen) and homogenized until complete lysis with a tissue homogenizer.
(§9) 2) Reverse transcription of sRNA to cDNA: Reverse Transcription Kit (High-Capacity cDNA Reverse Transcription Kits, Applied Biosystems, cat. no. 4368813), was used to reverse transcribe the total RNA to cDNA, and the reverse system was as follows: template RNA (150 ng/μL) 10 μL, 10× RT buffer, 2.0 μL, 25× dNTP Mix (100 mM) 0.8 μL, random primers 2.0 μL, the Multi Scribe™ reverse Transcriptase 1.0 RNase inhibitor 1.0 μL, nuclease-free H2O 3.2 μL. After a brief centrifugation, the reaction was loaded in a PCR reactor. The reaction conditions were as follows: (1) 25° C., 10 min; (2) 37° C., 120 min; (3) 85° C., 5 min; (4) 4° C., termination of the reaction. After the reaction, 20 μL RNase-free ddH2O was added to make up the final volume to 40 μL.
LightCycler 480 fluorescence quantitative PCR instrument was used, and the PCR reaction conditions were: 95° C. , 5 min for pre-denaturation, followed by the PCR amplification cycle: (1) 95° C., 10 s; (2) 55° C., 10 s; (3) 72° C., 20 s; a total of 40 cycles; 40° C. for 10 s in the end to cool down. The forward primer and reverse primer of the amplification reaction were designed and synthesized by Beijing Qing Ke New Industrial Biotechnology Co., Ltd. (U6 F primer: GTGCAGGGTCCGAGGT (SEQ ID NO: 24), PGY-sRNA-26F primer: […] (SEQ ID NO: 34), reverse primer miR all rev: GTGCACGCTCCGAGGT (SEQ ID NO: 26)).
(§10) 3) The relative expression amount was calculated by the 2-ΔCt method.
The data were represented in the form of mean±SEM. The parameter difference between the experimental group and the control group was evaluated by unpaired t test. The data were statistically analyzed by GraphPad Prism software, and P<0.05 was considered statistically significant.

[4] = In vivo delivery of single-stranded sRNA by single lipid, gavage (Example 11); set-up: species or system C57 mice; settings: FIGS. 108, 112-115; oral (gavage), 10 μL lipid, sRNA 1 nmol each, heating method, 12 hours; vs POPC and Lipofectamine RNAiMAX
Protocol: 1. Experimental animals: C57 mice, male, approximately 6 weeks old.
2. Manufacture of lipid mixture: the prepration was conducted on the basis of a dose of 10 μ1 lipid-1 nmol sRNA per mouse as follows: dissolved 1 nmol of each sRNA in 500 μl DEPC water, added 10 μl of the corresponding lipid, pipette to mix thoroughly, and then naturally cooled down after water bath for 15 min at 90° C., and administered via gavage.
1) Tissue sampling and extraction of RNA: 6 hours after gavage in mice, took 500 μl of blood from the eyeball, added 1.5 ml Trizol Reagent LS to thoroughly mix and lyse, added 3 ml Trizol Reagent (purchased from Invitrogen) to the tissue samples and homogenized until complete lysis. Tissues sampled: live/stomach/small intestine.
as §9, with “Transcriptase 1.0 μL, RNase inhibitor” for “Transcriptase 1.0 RNase inhibitor”
LightCycler 480 fluorescence quantitative PCR instrumentwas used, and the PCR reaction conditions were: 95° C. , 5 min for pre-denaturation, followed by the PCR amplification cycle: (1) 95° C., 10 s; (2) 55° C., 10 s; (3) 72° C., 20 s; a total of 40 cycles; 40° C. for 10 s in the end to cool down. The forward primer and reverse primer of the amplification reaction were designed and synthesized by Beijing Qing Ke New Industrial Biotechnology Co., Ltd. (U6 F primer: GCGCGTCGTGAAGCGTTC (SEQ ID NO: 23), U6 R primer: GTGCAGGGTCCGAGGT (SEQ ID NO: 24)).
as §10
5) Treatment group of single lipid and nucleic acid mixture: a mixture of 10 μL of single lipid (No. 41) with single-stranded sRNA mixure solution (PGY-sRNA-23, PGY-sRNA-26 and PGY-sRNA-32, 1 nmol each) was treated by heating method and then given to mice via intragastric administration.
2. 12 hours after intragastric administration, the blood was taken from the eyeball, and various tissues (liver/stomach/small intestine) was sampled. TRIzol was used for full lysis and the RNA was extracted to detect the amount of entry.

[5] = 100 μg lipid : 1 nmol sRNA per mouse, 90° C. 15 min

CC/C=C\C/C=C\C/C=C\CCCCCCCC(=O)OC[C@@H](O)COP(=O)([O-])OCC[N+](C)(C)C [No. 37, (2-{[(2R)-2-hydroxy-3-[(9Z,12Z,15Z)-octadeca-9,12,15-trienoyloxy]propylphosphonato]oxy}ethyl) trimethylazanium]
delivery of HJT-sRNA-m7 single-stranded RNA into A549 cells (real-time PCR) ([1]; single lipid, boiling method, FIGS. 78, 92, 103): delivered single-stranded RNA into A549 and MRC-5 cells
delivery of HJT-sRNA-m7 single-stranded RNA into MRC-5 cells (real-time PCR) [2]: delivered single-stranded RNA into A549 and MRC-5 cells
delivery effect into mouse blood and tissues (heart, spleen, kidney or intestine) compared with POPC [3]: significantly better than or equivalent to that of POPC
delivery of small RNA (PGY-sRNA-26) into intestine [3, 5]: delivers small RNA

CCCCCC/C=C\CCCCCCCC(=O)OC[C@H](COP(=O)(O)OCCN(C)C)OC(=O)CCCCCCC/C=C\CCCCCC [No. 60, 1,2-dipalmitoleoyl-sn-glycero-3-phospho-ethanolamine-N,N-dimethyl]
delivery of HJT-sRNA-m7 double-stranded RNA into A549 cells (real-time PCR) [1]: delivered double-stranded RNA into A549 cells
delivery effect into mouse blood and tissues (heart, spleen, kidney or intestine) compared with POPC [3]: significantly better than or equivalent to that of POPC
delivery of small RNA (PGY-sRNA-26) into intestine [3, 5]: delivers small RNA

CCCCCC/C=C\CCCCCCCC(=O)OC[C@H](COP(=O)(O)OCCN(C)C)OC(=O)CCCCCCC/C=C\CCCCCCCC [No. 62, 1-palmitoleoyl-2-oleoyl-sn-glycero-3-phospho-ethanolamine-N,N-dimethyl]
delivery of HJT-sRNA-m7 double-stranded RNA into A549 cells (real-time PCR) [1]: delivered double-stranded RNA into A549 cells
delivery effect into mouse blood and tissues (heart, spleen, kidney or intestine) compared with POPC [3]: significantly better than or equivalent to that of POPC
delivery of small RNA (PGY-sRNA-26) into intestine [3, 5]: delivers small RNA

CCCCCCCCCCCCCCCC(=O)OCC(COP(=O)(O)OCCN)OC(=O)CCCCCCCCCCCCCCC (centres unmarked) [No. 71, 1,2-Dipalmitoyl-sn-Glycero-3-Phosphatidyl-ethanolamine]
delivery of sRNA single-stranded nucleic acid into mouse blood [4]: could effectively deliver sRNA single-stranded nucleic acid into mouse blood via oral administration; also recorded: the delivery effect was better than POPC and Lipofectamine RNAiMAX

Mono- docosadienoin [No. 42]
delivery effect into mouse blood and tissues (heart, spleen, kidney or intestine) compared with POPC [3]: significantly better than or equivalent to that of POPC
delivery of small RNA (PGY-sRNA-26) into kidney [3, 5]: delivers small RNA
delivery of small RNA (PGY-sRNA-26) into spleen [3, 5]: delivers small RNA
